Reference: paper PMC7772087 (Biosensors & Bioelectronics, 2020)

Biological target: T1, NF-κB p50 (Homo sapiens, UniProt P19838)
T1 sequence (P19838 1-968): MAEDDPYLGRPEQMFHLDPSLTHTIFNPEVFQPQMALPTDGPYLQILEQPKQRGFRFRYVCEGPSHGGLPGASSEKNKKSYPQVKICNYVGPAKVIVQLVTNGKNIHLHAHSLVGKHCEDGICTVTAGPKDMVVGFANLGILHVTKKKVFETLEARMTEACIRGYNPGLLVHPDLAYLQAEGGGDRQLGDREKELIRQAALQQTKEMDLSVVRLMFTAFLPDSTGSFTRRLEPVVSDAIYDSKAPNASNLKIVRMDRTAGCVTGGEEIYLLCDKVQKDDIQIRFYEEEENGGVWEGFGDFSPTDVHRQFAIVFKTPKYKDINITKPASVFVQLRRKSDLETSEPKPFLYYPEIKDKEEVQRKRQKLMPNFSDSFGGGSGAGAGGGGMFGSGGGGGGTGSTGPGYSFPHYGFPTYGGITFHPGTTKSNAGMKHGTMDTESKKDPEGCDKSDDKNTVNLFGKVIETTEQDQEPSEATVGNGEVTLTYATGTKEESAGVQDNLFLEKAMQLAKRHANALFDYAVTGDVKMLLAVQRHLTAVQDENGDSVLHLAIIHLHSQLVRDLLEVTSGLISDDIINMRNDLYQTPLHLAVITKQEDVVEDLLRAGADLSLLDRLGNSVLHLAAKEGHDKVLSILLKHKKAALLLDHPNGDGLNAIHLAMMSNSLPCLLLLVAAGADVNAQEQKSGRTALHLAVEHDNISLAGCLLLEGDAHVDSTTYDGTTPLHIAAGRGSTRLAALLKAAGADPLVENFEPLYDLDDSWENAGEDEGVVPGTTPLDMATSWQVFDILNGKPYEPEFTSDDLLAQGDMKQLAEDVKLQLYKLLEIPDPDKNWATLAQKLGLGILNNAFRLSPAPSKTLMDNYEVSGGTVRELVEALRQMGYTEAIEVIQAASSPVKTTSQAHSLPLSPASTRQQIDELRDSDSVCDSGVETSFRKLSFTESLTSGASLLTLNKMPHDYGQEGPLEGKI
Experiment: Electrochemiluminescence biosensor of recombinant p50 binding to dsDNA

IC50: 0.83 nM
SMILES: O=C(NC1=CC(=O)[C@H]2O[C@H]2[C@H]1O)c1ccccc1O [(−)-DHMEQ]
